Earlier results in US10434129B2, “Composition to enhance HDL cholesterol and to decrease intima-media thickening in animals and humans and a method for its preparation” (ARJUNA NATURAL LTD, priority 2003, dated 2019).

Tests used:
[1] = tested on: rat vascular smooth muscle cells (VSMC)
[2] = tested on: Human umbilical vein endothelial cells (HUVEC); conditions: HUVEC incubated with ox-LDL

SMILES: O=C(O[C@@H]1O[C@@H]2COC(=O)c3cc(O)c(O)c(O)c3-c3c(cc(O)c(O)c3O)C(=O)O[C@H]([C@H]1O)[C@@H]2O)c1cc(O)c(O)c(O)c1 [corilagin]
- VSMC proliferation induced by ox-LDL [1]: inhibited VSMC proliferation
- Malondialdehyde (MDA) in the culture media [2]: reduce MDA
- adhesion of HUVEC to monocytes ([2]; then monocytes): prevented HUVEC from adhering to monocytes
